The subject of data set [1] is TNF-α production. Kind of data set: ELISA for TNF-α production by LPS stimulated human monocytes. It counts as cell-based. Conditions: Concentration of compound which inhibited the product of TNFα by 50% of control, read-out: TNFαIC50. How it is done:
Peripheral blood mononuclear cells were isolated from normal human blood on Hypaque-Ficoll density gradients. A portion of the isolated cells were further purified by adherence to gelatin coated flasks.
100 μl aliquots of monocytes were placed onto 96 well microtiter plates at a density of 5×10^5 cells/ml in RPMI-1640 medium containing 10% fetal bovine serum. After incubation for 24 hrs., various concentrations of the test compounds (FIG. 5) were added to the plated cells in a volume of 100 μl and incubated for 1 hr. After incubation, 1 μg/ml of LPS was added to each well.
18 hrs. after exposure of the plated cells to LPS, 100 μl of medium was collected from each well and assayed (by ELISA) for release of TNF-α, using recombinant human TNF as a standard. The sensitivity of the assay ranged from 10-100 pg/ml.

The subject of data set [2] is TNF-α production. Nature of the data set: LPS induced TNF-α production by human macrophages. In kind it is cell-based. The following applies: 0.1-1000 μM; result in words. How it is done: Human macrophages were cultured in 96 well microtiter plates and incubated with LPS. μAliquots of the stimulated cells were then incubated with, respectively, 0.1, 1, 10, 100 or 1000 μM of 1I-49, compound 37 and a commercially available isoquinoline (6,7-dimethoxy-1(2H)-isoquinoline from μAldrich Chemical; labelled S52-626-6 in FIG. 10) which, like the compounds of the invention, has an oxygen ortho to a ring nitrogen but, unlike the compounds of the invention, lacks a side chain substituent as described above (1L-49 is representative of the isoquinolone compounds of the invention having the side chain substituents described elsewhere above). The inhibitory efficacy of each compound was measured as a function of TNF-α reduction in μg/ml.

Read-outs that look alike come from different tables or passages of the source.

Take `CCCCCCn1c(=O)c2[nH]c(=O)[nH]c2n(C)c1=O` [Compound 24, 1-n-Hexyl-3-methyluric Acid]: the melting point is > 295 °C (dec.). The IC50 in data set [1] (Monocyte) worked out at 50 µM.

`Cn1c(=O)[nH]c(=O)c2[nH]c(S)nc21` [Compound 25, 3-Methyl-8-thiouric Acid] had a melting point above 320 °C. The IC50 in data set [1] (Monocyte) was above 200 µM.

With `CCCn1c(=O)n(CCCC(=O)OCC)c(=O)c2c1ncn2C` [Compound 31, ethyl 4-(2,3,6,7-tetrahydro-2,6-dioxo-7-methyl-3-n-propyl-1H-purin-1-yl)butonoic acid], the IC50 in data set [1] turned out to be 5 µM.

Take `CCOC(=O)CCCn1c(=O)c2ccccc2n(C)c1=O` [Compound 52, Ethyl 1-Methyl-1,4-dihydro-2,4-dioxo-3(2H)-quinazolinebutanoate]: the IC50 in data set [1] (Monocyte) came out at 55 µM.

`COc1cc2cc[nH]c(=O)c2cc1OC` [S52, 626-6, 6,7-dimethoxy-1(2H)-isoquinoline]: in data set [2], the “inhibition of LPS induced TNF-α production” value was “mild inhibitory activity”.

Values taken from patent US6562819B2, “Compounds for inhibition of ceramide-mediated signal transduction” (The Regents of the University of California, priority 1994, dated 2003).
